# System: cholesterol absorption (serum 3H-cholesterol)
# Experiment: In Vivo Assay of Hypolipidemic Agents using the Rat Cholesterol Absorption Model
# Set-up: species or system Sprague-Dawley rats
# Conditions: peroral, 0.3 mg/kg (footnote 6), serum 3H-cholesterol vs vehicle control
# Procedure: In Vivo Assay of Hypolipidemic Agents using the Rat Cholesterol Absorption Model. This model is based on models described by Burnett et al (2002), Bioorg. Med. Chem. Lett. 2002 Feb. 11;12(3):315-8 and J. Lipid Res. 1999 October;40(10):1747-57. Female Sprague-Dawley rats weighing 150-250 g are separated into groups of […] and fasted overnight. The animals (4-6/group) are dosed perorally with 300 μL test compounds in olive oil or suitable vehicle. Thirty minutes later, 3-5 microCuries ^3H-cholesterol per rat are delivered perorally in 300 μL olive oil. After three hours, 200 μL serum is collected, vortexed with scintillation fluid, and measured for radioactivity in a scintillation counter. Percent inhibition is defined as 100*(1−Ctest/Cctrl), where Ctest and Cctl refer to ^3H levels in serum for the test compound and for the vehicle only control, respectively. Percent inhibition values are reported for a fixed dose. The ED50 is the dose at which the half-maximal effect on serum ^3H levels is observed for a given test compound.
# Representative compounds of the invention were tested in the Rat Cholesterol Absorption model above.
row,Structure (SMILES),% inhibition at 0.3 mg/kg
1,"O=C1[C@H](CC[C@H](O)c2ccc(F)cc2)[C@@H](c2ccc(-c3ccc([C@@H]4O[C@H](CO)[C@@H](O)[C@H](O)[C@H]4O)cc3)cc2O)N1c1ccccc1 [Example 66, (1S)-1,5-Anhydro-1-(4′-{(2S,3R)-3-[(3S)-3-(4-fluorophenyl)-3-hydroxypropyl]-4-oxo-1-phenylazetidin-2-yl}-3′-hydroxybiphenyl-4-yl)-D-glucitol]",71^6%
2,"O=C1[C@H](CC[C@H](O)c2ccc(F)cc2)[C@@H](c2ccc(-c3cccc([C@@H](O)[C@H]4OC(O)[C@H](O)[C@@H](O)[C@@H]4O)c3)cc2)N1c1ccccc1 (stereo partly drawn) [Example 72, (6R)-6-C-(4′-{(2S,3R)-3-[(3S)-3-(4-Fluorophenyl)-3-hydroxypropyl]-4-oxo-1-phenylazetidin-2-yl}biphenyl-3-yl)-D-glucopyranose]",27^6%

# Same assay, conditions: peroral, 1 mg/kg, serum 3H-cholesterol 3 h after cholesterol dose, vs vehicle control
row,Structure (SMILES),% inhibition at 1 mg/kg [%]
1,O=C1[C@H](CC[C@H](O)c2ccc(F)cc2)[C@@H](c2ccc(-c3cccc(C[C@@H]4O[C@H](CO)[C@@H](O)[C@H](O)[C@H]4O)c3)cc2)N1c1ccc(F)cc1 [Example 117],26

# Same assay, conditions: peroral, 10 mg/kg (footnote 1), serum 3H-cholesterol vs vehicle control
row,Structure (SMILES),% inhibition at 10 mg/kg
1,"O=C1[C@H](CC[C@H](O)c2ccc(F)cc2)[C@@H](c2ccc(-c3cccc([N+](=O)[O-])c3)cc2)N1c1ccc(F)cc1 [Example 23, (3R,4S)-1-(4-fluorophenyl)-3-[(3S)-3-(4-fluorophenyl)-3-hydroxypropyl]-4-(3′-nitrobiphenyl-4-yl)azetidin-2-one]",54^1%

# Same assay, conditions: po, peroral, 1 mg/kg, serum 3H-cholesterol 3 h after cholesterol dose, vs vehicle control
row,Structure (SMILES),inhibition in vivo at 1 mg/kg [%]
1,"O=Cc1cccc(-c2ccc([C@@H]3[C@@H](CC[C@H](O)c4ccc(F)cc4)C(=O)N3c3ccc(F)cc3)cc2)c1 [Example 13, 4′-{(2S,3R)-1-(4-fluorophenyl)-3-[(3S)-3-(4-fluorophenyl)-3-hydroxypropyl]-4-oxoazetidin-2-yl}biphenyl-3-carbaldehyde]",70
2,"COc1ccc(C=O)c(-c2ccc([C@@H]3[C@@H](CC[C@H](O)c4ccc(F)cc4)C(=O)N3c3ccc(F)cc3)cc2)c1 [Example 85, 4′-{(2S,3R)-1-(4-fluorophenyl)-3-[(3S)-3-(4-fluorophenyl)-3-hydroxypropyl]-4-oxoazetidin-2-yl}-5-methoxybiphenyl-2-carbaldehyde]",15
3,"O=C1[C@H](CC[C@H](O)c2ccc(F)cc2)[C@@H](c2ccc(-c3cc(O)cc(F)c3)cc2)N1c1ccc(F)cc1 [Example 112, (3R,4S)-4-(3′-fluoro-5′-hydroxybiphenyl-4-yl)-1-(4-fluorophenyl)-3-[(3S)-3-(4-fluorophenyl)-3-hydroxypropyl]azetidin-2-one]",75
4,"COc1ccc(-c2ccc([C@@H]3[C@@H](CC[C@H](O)c4ccc(F)cc4)C(=O)N3c3ccc(F)cc3)cc2)c(OC)c1OC [Example 96, (3R,4S)-1-(4-fluorophenyl)-3-[(3S)-3-(4-fluorophenyl)-3-hydroxypropyl]-4-(2′,3′,4′-trimethoxybiphenyl-4-yl)azetidin-2-one]",69
5,"COc1cc(F)cc(-c2ccc([C@@H]3[C@@H](CC[C@H](O)c4ccc(F)cc4)C(=O)N3c3ccc(F)cc3)cc2)c1 [Example 111, (3R,4S)-4-(3′-fluoro-5′-methoxybiphenyl-4-yl)-1-(4-fluorophenyl)-3-[(3S)-3-(4-fluorophenyl)-3-hydroxypropyl]azetidin-2-one]",72
6,"O=C1[C@H](CC[C@H](O)c2ccc(F)cc2)[C@@H](c2ccc(-c3cccc([C@H](O)[C@H]4OC(O)[C@H](O)[C@@H](O)[C@@H]4O)c3)cc2O)N1c1ccccc1 (stereo partly drawn) [Example 73, (6S)-6-C-(4′-{(2S,3R)-3-[(3S)-3-(4-Fluorophenyl)-3-hydroxypropyl]-4-oxo-1-phenylazetidin-2-yl}-3′-hydroxybiphenyl-3-yl)-D-glucopyranose]",59
7,"COc1cc(-c2ccc([C@@H]3[C@@H](CC[C@H](O)c4ccc(F)cc4)C(=O)N3c3ccc(F)cc3)cc2)ccc1O [Example 102, (3R,4S)-1-(4-fluorophenyl)-3-[(3S)-3-(4-fluorophenyl)-3-hydroxypropyl]-4-(4′-hydroxy-3′-methoxybiphenyl-4-yl)azetidin-2-one]",56
8,"O=C1[C@H](CC[C@H](O)c2ccc(F)cc2)[C@@H](c2ccc(-c3cccc([C@H](O)[C@@H](O)[C@@H](O)[C@H](O)[C@@H](O)CO)c3)cc2O)N1c1ccccc1 [Example 75, (6S)-6-C-(4′-{(2S,3R)-3-[(3S)-3-(4-Fluorophenyl)-3-hydroxypropyl]-4-oxo-1-phenylazetidin-2-yl}-3′-hydroxybiphenyl-3-yl)-D-glucitol]",68
9,"O=C1[C@H](CC[C@H](O)c2ccc(F)cc2)[C@@H](c2ccc(-c3cccc([C@H](O)[C@H]4OC(O)[C@H](O)[C@@H](O)[C@@H]4O)c3)cc2)N1c1ccccc1 (stereo partly drawn) [Example 71, (6S)-6-C-(4′-{(2S,3R)-3-[(3S)-3-(4-Fluorophenyl)-3-hydroxypropyl]-4-oxo-1-phenylazetidin-2-yl}biphenyl-3-yl)-D-glucopyranose]",65
10,"O=C1[C@H](CC[C@H](O)c2ccc(F)cc2)[C@@H](c2ccc(-c3cccc(CO)c3)cc2)N1c1ccc(F)cc1 [Example 16, (3R,4S)-1-(4-Fluorophenyl)-3-[(3S)-3-(4-fluorophenyl)-3-hydroxypropyl]-4-(3′-(hydroxymethyl)biphenyl-4-yl)azetidin-2-one]",72
11,"O=C1[C@H](CC[C@H](O)c2ccc(F)cc2)[C@@H](c2ccc(-c3cccc(B(O)O)c3)cc2)N1c1ccc(F)cc1 [Example 115, (4′-{(2S,3R)-1-(4-fluorophenyl)-3-[(3S)-3-(4-fluorophenyl)-3-hydroxypropyl]-4-oxoazetidin-2-yl}biphenyl-3-yl)boronic Acid]",70
12,"O=C1[C@H](CC[C@H](O)c2ccc(F)cc2)[C@@H](c2ccc(-c3cccc(O)c3)cc2)N1c1ccc(-c2ccccc2)cc1 [Example 124, (3R,4S)-1-biphenyl-4-yl-3-[(3S)-3-(4-fluorophenyl)-3-hydroxypropyl]-4-(3′-hydroxybiphenyl-4-yl)azetidin-2-one]",48
13,"O=Cc1ccc(-c2ccc([C@@H]3[C@@H](CC[C@H](O)c4ccc(F)cc4)C(=O)N3c3ccc(F)cc3)cc2)cc1 [Example 99, 4′-{(2S,3R)-1-(4-fluorophenyl)-3-[(3S)-3-(4-fluorophenyl)-3-hydroxypropyl]-4-oxoazetidin-2-yl}biphenyl-4-carbaldehyde]",38
14,"COC(=O)c1ccc(-c2ccc([C@@H]3[C@@H](CC[C@H](O)c4ccc(F)cc4)C(=O)N3c3ccc(F)cc3)cc2)cc1 [Example 89, methyl 4′-{(2S,3R)-1-(4-fluorophenyl)-3-[(3S)-3-(4-fluorophenyl)-3-hydroxypropyl]-4-oxoazetidin-2-yl}biphenyl-4-carboxylate]",45
15,"O=C1[C@H](CC[C@H](O)c2ccc(F)cc2)[C@@H](c2ccc(-c3cccc(O)c3)cc2)N1c1ccccc1 [Example 57, (3R,4S)-3-[(3S)-3-(4-Fluorophenyl)-3-hydroxypropyl]-4-(3′-hydroxybiphenyl-4-yl)-1-phenylazetidin-2-one]",73
16,"O=C(O)c1ccc(-c2ccc([C@@H]3[C@@H](CC[C@H](O)c4ccc(F)cc4)C(=O)N3c3ccc(F)cc3)cc2)cc1 [Example 22, 4′-{(2S,3R)-1-(4-fluorophenyl)3-[(3S)-3-(4-fluorophenyl)-3-hydroxypropyl]-4-oxoazetidin-2-yl]biphenyl-4-carboxylic acid]",52
17,"Cc1ccccc1-c1ccc([C@@H]2[C@@H](CC[C@H](O)c3ccc(F)cc3)C(=O)N2c2ccc(F)cc2)cc1 [Example 98, (3R,4S)-1-(4-fluorophenyl)-3-[(3S)-3-(4-fluorophenyl)-3-hydroxypropyl]-4-(2′-methylbiphenyl-4-yl)azetidin-2-one]",7
18,"COc1ccc(-c2ccc([C@@H]3[C@@H](CC[C@H](O)c4ccc(F)cc4)C(=O)N3c3ccc(F)cc3)cc2)cc1OC [Example 81, (3R,4S)-4-(3′,4′-dimethoxybiphenyl-4-yl)-1-(4-fluorophenyl)-3-[(3S)-3-(4-fluorophenyl)-3-hydroxypropyl]azetidin-2-one]",17
19,"CN(C)S(=O)(=O)c1ccc(-c2ccc([C@@H]3[C@@H](CC[C@H](O)c4ccc(F)cc4)C(=O)N3c3ccc(F)cc3)cc2)cc1 [Example 15, 4′-{(2S,3R)-1-(4-fluorophenyl)-3-[(3S)-3-(4-fluorophenyl)-3-hydroxypropyl]-4-oxoazetidin-2-yl}biphenyl-N,N-dimethylbiphenyl-4-sulfonamide]",8
20,O=C1[C@H](CC[C@H](O)c2ccc(F)cc2)[C@@H](c2ccc(-c3ccc(CO)cc3)cc2)N1c1ccc(F)cc1 [Example 18],48
21,"O=C(O)[C@@H]1O[C@H](Oc2cccc(-c3ccc([C@@H]4[C@@H](CC[C@H](O)c5ccc(F)cc5)C(=O)N4c4ccc(F)cc4)cc3)c2)[C@@H](O)[C@H](O)[C@H]1O [Example 20, 4′-{(2S,3R)-1-(4-fluorophenyl)-3-[(3S)-3-(4-fluorophenyl)-3-hydroxypropyl]-4-oxoazetidin-2-yl}biphenyl-3-yl β-L-glucopyranosiduronic Acid]",59

# — patent US7320972B2, “4-Biarylyl-1-phenylazetidin-2-ones” (Microbia, Inc., priority 2003, dated 2008)
